Reference: patent publication US20030224978A1, “Compounds and methods for modulating apoptosis” (McGill University, priority 1996, published 2003)
Entries after “also recorded” stand apart in the source; their conditions may differ. Where two headings read alike, the source gives them in different places. Positions of bridges follow the written chain, without caps; N, C: chain ends. Residues, ends and D or L forms follow the SMILES beside them.

What was measured:
MDA-MB231 = assay type: cell-based; details: human
Method: (§1) N-Ac-CHAVC-NH2 (SEQ ID NO:10) and the control peptide N-Ac-CHGVC-NH2 (SEQ ID NO:20) were evaluated for possible cytotoxic effects on human microvascular endothelial (HMVEC; Clonetics), human umbilical vein endothelial (HUVEC; ATCC #CRL-1730), IAFp2 (human fibroblast cell line; Institute Armand-Frapier, Montreal, Quebec), WI-38 (human fibroblast cell line; ATCC #CCL-75), MDA-MB231 (human breast cancer cell line; ATCC #HTB-26), and PC-3 (human prostate cancer cell line; ATCC #CRL-1435) cells utilizing the MTT assay (Plumb et al., Cancer Res. 49:4435-4440, 1989). Neither of the peptides was cytotoxic at concentrations up to and including 100 μM. Similarly, neither of the peptides was capable of inhibiting the proliferation of the above cell lines at concentrations up to 100 μM, as judged by ^3H-thymidine incorporation assays.

PC-3 [1] = assay type: cell-based; details: human
Method: as §1

in vitro [2] = assay type: cell-based; details: human
Method: as §1

in vitro [3] = assay type: cell-based; details: human; remark: listed apart in the source
Method: as §1

SKOV3 cells = assay: Disruption of human ovarian cancer cell (SKOV3) adhesion; assay type: cell-based; details: 0.01-1 mg/mL, up to 48 hours
Description: Within one representative cell adhesion assay, the addition of a modulating agent to cells that express a cadherin results in disruption of cell adhesion. A “cadherin-expressing cell,” as used herein, may be any type of cell that expresses at least one cadherin on the cell surface at a detectable level, using standard techniques such as immunocytochemical protocols (Blaschuk and Farookhi, Dev. Biol. 136:564-567, 1989). Cadherin-expressing cells include endothelial (e.g., bovine pulmonary artery endothelial cells), epithelial and/or cancer cells (e.g., the human ovarian cancer cell line SKOV3 (ATCC #HTB-77)). For example, such cells may be plated under standard conditions that permit cell adhesion in the presence and absence of modulating agent (e.g., 500 μg/mL). Disruption of cell adhesion may be determined visually within 24 hours, by observing retraction of the cells from one another.
The human ovarian cancer cell line SKOV3 (ATCC #HTB-77) expresses N-cadherin. SKOV3 cells were cultured in a modified MEM-based media containing 10% FCS. Cells were grown in T-250 culture flasks and maintained by periodic subculturing. Cyclic peptides were tested on cells grown in individual wells of 96-well culture dishes (surface area of each well was 0.32 cm^2). Cells were harvested from flasks and seeded at a density of 50,000 cells per well in 0.1 mL media containing the cyclic peptides at concentrations of 1, 0.1, or 0.01 mg/mL, or in the absence of cyclic peptide. Media control wells were also established. Cultures were evaluated periodically by microscopic examination under both bright field and phase contrast conditions. Cultures were maintained for 48 hours.

in vitro [4] = assay type: cell-based; details: human; remark: listed apart in the source
Method: as §1

in vitro [5] = assay type: cell-based; details: human; remark: listed apart in the source
Method: as §1

IAFp2 = assay type: cell-based, human; details: 3 h
Method: as §1

HMVEC = assay type: cell-based, human; details: 3 h
Method: as §1

PC-3 [6] = assay type: cell-based, human; details: 3 h
Method: as §1

WI-38 = assay type: cell-based, human; details: 3 h
Method: as §1

chick N-cadherin = target: T1, chick N-cadherin (Gallus gallus, UniProt P10288); assay: N-cadherin dependent neurite outgrowth of rat cerebellar neurons on N-cadherin expressing 3T3 cells (Example 14); assay type: cell-based
T1 construct: expressed in transfected cells; host or cells: 3T3 fibroblasts
T1 sequence (P10288 165-912): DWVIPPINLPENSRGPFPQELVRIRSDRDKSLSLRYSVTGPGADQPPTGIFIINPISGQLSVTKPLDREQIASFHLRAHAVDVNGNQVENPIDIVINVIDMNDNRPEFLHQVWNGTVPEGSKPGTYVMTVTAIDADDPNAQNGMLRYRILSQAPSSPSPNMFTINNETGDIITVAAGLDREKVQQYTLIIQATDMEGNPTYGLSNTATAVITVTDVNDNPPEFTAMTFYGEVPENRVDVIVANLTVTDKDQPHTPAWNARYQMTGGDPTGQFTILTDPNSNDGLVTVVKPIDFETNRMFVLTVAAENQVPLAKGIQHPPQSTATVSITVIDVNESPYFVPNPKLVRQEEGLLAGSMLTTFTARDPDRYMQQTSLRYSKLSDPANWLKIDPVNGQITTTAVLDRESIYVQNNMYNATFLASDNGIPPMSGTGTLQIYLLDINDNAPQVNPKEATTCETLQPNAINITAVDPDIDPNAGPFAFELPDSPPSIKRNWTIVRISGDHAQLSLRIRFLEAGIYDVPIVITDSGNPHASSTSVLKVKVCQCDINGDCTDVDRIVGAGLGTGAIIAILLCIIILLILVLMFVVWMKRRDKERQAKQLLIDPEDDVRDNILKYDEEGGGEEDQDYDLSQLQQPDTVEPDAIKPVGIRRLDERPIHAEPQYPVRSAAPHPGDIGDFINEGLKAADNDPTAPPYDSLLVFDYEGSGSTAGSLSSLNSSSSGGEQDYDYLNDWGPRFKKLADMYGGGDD
Method: (§2) Cell culture and neurite outgrowth assays. Co-cultures of cerebellar neurons on monolayers of control 3T3 cells and monolayers of transfected 3T3 cells that express physiological levels of chick N-cadherin or human L1 were established as previously described (Williams et al., Neuron 13:583-594, 1994). In brief, 80,000 3T3 cells (control and transfected) were plated into individual chambers of an eight-chamber tissue culture slide coated with polylysine and fibronectin and cultured in DMEM/10% FCS. After 24 hours, when confluent monolayers had formed, the medium was removed and 3000 cerebellar neurons isolated from post-natal day 2-3 rats were plated into each well in SATO media (Doherty et al., Nature 343:464-466, 1990) supplemented with 2% FCS. All of the test peptides were added immediately before the neurons as a 2×stock prepared in SATO/2% FCS. The co-cultures were maintained for 16-18 hours, at which time they were fixed and immunostained for GAP-43 which is present only in the neurons and delineates the neuritic processes. The mean length of the longest neurite per cell was measured for 150-200 neurons sampled in replicate cultures as previously described (Williams et al., Neuron 13:583-594, 1994). […] Dose-response curves were evaluated and the EC50 values determined.
Effects of cyclic HAV peptides on N-cadherin function. The ability of N-Ac-CHAVC-NH2 (SEQ ID NO:10; compound 1) to inhibit neurite outgrowth was initially tested. This cyclic peptide has the cadherin CAR sequence (HAV) and no flanking amino acid residues. Neurons were cultured on confluent monolayers of control (untransfected) and N-cadherin expressing 3T3 cells for 16-18 hours. The cells were then fixed and the length of the longest neurite on 150-200 neurons was determined by standard assay, as described above. FIG. 24 gives the mean neurite length in a representative experiment where cerebellar neurons have been cultured over control and N-cadherin expressing cells. In the absence of peptide, the mean length of the longest neurite per cell was approximately double on the N-cadherin expressing cells, as compared to 3T3 cells. This response requires N-cadherin function in both the neuron and transfected fibroblast.

L1 = L1 (Homo sapiens, UniProt P32004); assay: L1 response: neurite outgrowth of rat cerebellar neurons on L1 expressing 3T3 cells (Example 14); assay type: cell-based; design: expressed in transfected cells; host or cells: 3T3 cells (stably transfected); details: 100 μg/mL, concentrations that substantially inhibited the N-cadherin response
Method: FIG. 26 is a bar graph illustrating the effects of the cyclic peptides N-Ac-CHAVDC-NH2 (SEQ ID NO:11), N-Ac-CHAVDIC-NH2 (SEQ ID NO:62) and N-Ac-[…]-NH2 (SEQ ID NO:63) on L1 function. Cerebellar neurons were cultured on monolayers of control 3T3 cells and L1 expressing 3T3 cells for 16-18 hours in control media (unshaded) or control media supplemented with peptides N-Ac-CHAVDC-NH2 (SEQ ID NO:11; diagonal rising right), N-Ac-CHAVDIC-NH2 (SEQ ID NO:62); diagonal cross hatch) or N-Ac-[…]-NH2 (SEQ ID NO:63; diagonal rising left) at a concentration of 100 μg/mL. The cultures were then fixed and neurite outgrowth determined by measuring the length of the longest neurite from a total of 150-200 neurons sampled in replicate cultures for each experimental condition. […] The results are pooled from three independent experiments, and the bars show the s.e.m.
as §2, with “The co-cultures were maintained for 16-18 hours, at which time they were fixed and immunostained for GAP-43 which is present only in the neurons and delineates the neuritic processes.” left out, “determined. […]” for “determined.”

L1, sequence (P32004 20-1257): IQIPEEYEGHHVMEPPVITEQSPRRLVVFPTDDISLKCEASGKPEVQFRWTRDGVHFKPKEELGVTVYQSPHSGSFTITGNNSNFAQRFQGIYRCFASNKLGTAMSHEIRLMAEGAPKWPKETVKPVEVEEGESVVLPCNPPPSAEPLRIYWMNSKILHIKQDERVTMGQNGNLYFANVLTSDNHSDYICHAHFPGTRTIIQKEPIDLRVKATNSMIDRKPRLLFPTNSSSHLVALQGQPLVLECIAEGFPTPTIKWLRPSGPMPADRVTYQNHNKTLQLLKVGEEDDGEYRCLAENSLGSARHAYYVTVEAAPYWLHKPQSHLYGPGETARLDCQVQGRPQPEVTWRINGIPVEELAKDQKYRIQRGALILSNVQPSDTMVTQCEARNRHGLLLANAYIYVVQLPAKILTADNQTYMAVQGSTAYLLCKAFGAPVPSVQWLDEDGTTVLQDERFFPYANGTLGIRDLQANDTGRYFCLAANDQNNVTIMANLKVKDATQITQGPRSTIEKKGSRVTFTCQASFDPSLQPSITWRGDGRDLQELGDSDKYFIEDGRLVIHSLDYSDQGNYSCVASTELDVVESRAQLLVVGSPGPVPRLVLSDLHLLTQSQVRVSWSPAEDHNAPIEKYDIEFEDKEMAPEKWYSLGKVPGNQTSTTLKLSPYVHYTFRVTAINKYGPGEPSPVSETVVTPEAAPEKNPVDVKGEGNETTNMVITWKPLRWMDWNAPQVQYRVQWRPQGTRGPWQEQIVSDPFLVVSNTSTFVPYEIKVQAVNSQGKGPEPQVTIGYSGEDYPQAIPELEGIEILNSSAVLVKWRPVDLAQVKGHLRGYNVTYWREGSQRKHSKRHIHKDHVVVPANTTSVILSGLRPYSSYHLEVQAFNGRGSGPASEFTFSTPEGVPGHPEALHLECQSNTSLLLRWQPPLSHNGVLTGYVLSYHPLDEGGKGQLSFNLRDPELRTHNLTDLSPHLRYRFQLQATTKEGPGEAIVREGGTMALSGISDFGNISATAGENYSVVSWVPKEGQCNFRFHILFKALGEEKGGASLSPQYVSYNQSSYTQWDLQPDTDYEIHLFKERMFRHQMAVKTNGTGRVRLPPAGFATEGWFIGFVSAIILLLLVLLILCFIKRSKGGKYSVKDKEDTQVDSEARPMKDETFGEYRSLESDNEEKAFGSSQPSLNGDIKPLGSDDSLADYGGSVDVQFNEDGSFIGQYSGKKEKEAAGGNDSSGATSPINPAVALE

Structure (SMILES)	IC50 (MDA-MB231) [µM]	IC50 (PC-3 [1]) [µM]	IC50 (in vitro [2]) [µM]	IC50 (in vitro [3]) [µM]	activity on SKOV3 cell adhesion (SKOV3 cells)	IC50 (in vitro [4]) [µM]	IC50 (in vitro [5]) [µM]	IC50 (IAFp2) [µM]	IC50 (HMVEC) [µM]	IC50 (PC-3 [6]) [µM]	IC50 (WI-38) [µM]	inhibition at 125 µg/mL (chick N-cadherin; NIH3T3, 125 μg/mL, 16-18 hours) [%]	inhibitory activity on N-cadherin dependent neurite outgrowth, in words (chick N-cadherin; Tables 8 and 9, 250 or 125 μg/mL)	EC50 (chick N-cadherin; from dose-response curve) [µM]	effect on L1 response (neurite outgrowth over L1 expressing 3T3 cells) (L1)
CC(=O)N[C@H]1CCCCNC(=O)C[C@@H](C(N)=O)NC(=O)[C@H](C(C)C)NC(=O)[C@H](C)NC(=O)[C@H](Cc2c[nH]cn2)NC1=O (Ac-KHAVD-NH2; lactam 1-5 (inferred))	> 100	> 100	> 100	> 100	inactive	> 100	> 100	> 100	> 100	> 100	> 100				
CC[C@H](C)[C@@H]1NC(=O)[C@H](CC(=O)O)NC(=O)[C@H](C(C)C)NC(=O)[C@H](C)NC(=O)[C@H](Cc2c[nH]cn2)NC(=O)[C@@H](NC(C)=O)CSSC[C@@H](C(N)=O)NC1=O [N-Ac-CHAVDIC-NH2] (Ac-CHAVDIC-NH2; disulfide 1-7)												88.3 ± 7.5	further increased activity; also recorded: potent inhibitors	60	did not interfere with the ability of neurons to extend neurites over 3T3 cells expressing L1; also recorded: not inhibited
